In this experiment the target is T1, KCNH6 potassium channel (Homo sapiens, UniProt Q9H252).
T1 construct: human KCNH6 (WT cDNA) transfected in HEK293T cells; FLAG-tagged for pull-down
T1 sequence (Q9H252 1-958): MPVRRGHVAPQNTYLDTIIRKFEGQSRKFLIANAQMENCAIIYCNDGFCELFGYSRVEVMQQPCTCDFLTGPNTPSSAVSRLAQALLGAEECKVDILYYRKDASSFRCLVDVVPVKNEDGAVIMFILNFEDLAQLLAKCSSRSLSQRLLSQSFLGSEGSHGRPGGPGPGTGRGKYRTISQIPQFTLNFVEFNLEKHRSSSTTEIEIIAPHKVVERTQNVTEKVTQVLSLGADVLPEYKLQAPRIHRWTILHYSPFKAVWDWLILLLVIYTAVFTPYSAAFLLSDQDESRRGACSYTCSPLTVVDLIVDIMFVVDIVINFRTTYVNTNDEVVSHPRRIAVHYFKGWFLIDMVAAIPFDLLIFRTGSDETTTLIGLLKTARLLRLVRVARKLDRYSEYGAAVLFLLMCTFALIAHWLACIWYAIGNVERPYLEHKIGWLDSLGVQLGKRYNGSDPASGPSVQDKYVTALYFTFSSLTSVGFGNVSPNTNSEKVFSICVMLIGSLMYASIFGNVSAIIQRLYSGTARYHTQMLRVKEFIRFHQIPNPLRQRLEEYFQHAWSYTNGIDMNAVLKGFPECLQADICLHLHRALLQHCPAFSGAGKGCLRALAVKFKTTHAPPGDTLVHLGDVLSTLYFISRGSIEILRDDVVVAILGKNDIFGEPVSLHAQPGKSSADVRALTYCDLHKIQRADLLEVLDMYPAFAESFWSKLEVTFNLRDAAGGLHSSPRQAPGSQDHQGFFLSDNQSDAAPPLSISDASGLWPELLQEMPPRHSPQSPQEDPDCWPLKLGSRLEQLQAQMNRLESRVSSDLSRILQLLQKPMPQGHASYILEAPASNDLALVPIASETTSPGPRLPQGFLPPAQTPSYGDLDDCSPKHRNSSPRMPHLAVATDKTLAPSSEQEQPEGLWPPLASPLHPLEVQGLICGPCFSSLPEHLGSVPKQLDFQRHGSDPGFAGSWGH
In words: whole-cell patch clamp of KCNH6-transfected HEK293T cells; affinity-bead pull-down from cell extract competed by free BBR. Format: cell-based. For orientation: Patch clamp records ionic current or voltage across a cell membrane.

Drawing on article PMC8460738, “Berberine is an insulin secretagogue targeting the KCNH6 potassium channel” (Nature Communications, 2021), this text covers IC50 for one molecule.

The term IC50 denotes the midpoint of a concentration-inhibition curve. A higher IC50 goes with a need for much substance.

In the case of `COc1ccc2cc3[n+](cc2c1OC)CCc1cc2c(cc1-3)OCO2` [BBR, berberine], the IC50 was 1010 ± 40 nM.
